Data set [1] addresses T1, human calcitonin receptor (Homo sapiens, UniProt P30988).
T1 construct: expressed in transfected cells; host or cells: BHK570
T1 sequence (P30988 25-474): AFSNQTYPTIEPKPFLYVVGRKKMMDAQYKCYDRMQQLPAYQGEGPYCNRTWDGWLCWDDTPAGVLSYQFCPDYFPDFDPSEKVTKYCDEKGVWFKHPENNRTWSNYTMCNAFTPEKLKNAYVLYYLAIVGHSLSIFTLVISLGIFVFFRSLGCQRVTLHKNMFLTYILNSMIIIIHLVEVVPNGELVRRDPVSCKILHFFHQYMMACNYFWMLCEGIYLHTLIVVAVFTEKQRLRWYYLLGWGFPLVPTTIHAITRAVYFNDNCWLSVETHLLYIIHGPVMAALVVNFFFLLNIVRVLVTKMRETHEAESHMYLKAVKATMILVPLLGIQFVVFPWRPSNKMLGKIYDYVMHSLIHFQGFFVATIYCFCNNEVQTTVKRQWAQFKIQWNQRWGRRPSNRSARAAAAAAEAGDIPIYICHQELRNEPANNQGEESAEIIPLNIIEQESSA
In words: Assay (II)a functional CRE-luciferase assay, human calcitonin receptor. Conditions: Table 7; human calcitonin (CTa) receptor. It counts as cell-based. From the text:
(§1) 1. Luciferase Assay Outline
(§2) Activation of calcitonin and amylin (coexpression of calcitonin receptor and receptor activity modifying proteins (RAMP)) receptors lead to increased intracellular concentrations of cAMP. Consequently, transcription is activated by promoters containing multiple copies of the cAMP response element (CRE). It is thus possible to measure amylin activity by the use of a CRE luciferase reporter gene introduced into BHK cells also expressing calcitonin or amylin receptors.
(§3) A BHK570 cell line was stably transfected with the human calcitonin receptor and a CRE-responsive luciferase reporter gene. The cell line was further transfected with RAMP-3, using standard methods. This turns the calcitonin receptor into an amylin 3(a) receptor. Methotrexate, Neomycin, and Hygromycin are selection markers for luciferase, the calcitonin receptor, and RAMP-3, respectively.
(§4) To perform activity assays, BHK calcitonin (a) receptor- or amylin 3(a)-receptor/CRE-luc cells were seeded in white 96 well culture plates at a density of about 20.000 cells/well. […] Further, 50 μl/well of standard or sample in assay buffer were added. After 3 hours incubation at 37° C. and 5% CO2, the assay medium with standard or sample were removed and replaced by 100 μl/well PBS. Further, 100 μl/well LucLite™ was added. The plates were sealed and incubated at room temperature for 30 minutes. Finally, luminescence was measured on a TopCounter (Packard) in SPC (single photon counting) mode.

Data set [2] concerns the target T2, human amylin receptor (amylin 3(a) receptor: human calcitonin receptor + RAMP-3) (Homo sapiens, UniProt O60896+P30988).
T2 construct: expressed in transfected cells; host or cells: BHK570
T2 sequence (P30988 25-474): T1 sequence (P30988 25-474)
T2 sequence (O60896 24-148 partner): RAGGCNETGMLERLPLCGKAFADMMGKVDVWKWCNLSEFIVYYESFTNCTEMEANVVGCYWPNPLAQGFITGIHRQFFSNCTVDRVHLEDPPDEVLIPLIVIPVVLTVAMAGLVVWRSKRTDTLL
In words: Assay (II)a functional CRE-luciferase assay, human amylin receptor. Conditions: Table 2; BHK amylin 3(a)-receptor/CRE-luc cells. It counts as cell-based.
Description: as §1, §2, §3, §4

A short description of data set [3]: Assay (IV) determination of solubility. It counts as physicochemical. The essentials: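 Solubility was profiled across pH 3.0–8.0 after 18 hours at room temperature: a ~500 nmol/ml aqueous polypeptide solution was diluted 1:1 into 100 mM glycylglycine or bistrispropane buffers. After centrifugation, HPLC gave the dissolved concentration.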
Where [4] appears, read: bistrispropane buffer, pH 6, pH 6.0, read-out: Solubility pH 6.0.
Where [5] appears, read: bistrispropane buffer, pH 6.5, pH 6.5, read-out: Solubility pH 6.5.
The mark [6] stands for this setting: bistrispropane buffer, pH 7, pH 7.0, 18 hours at room temperature, Table 3, read-out: Solubility pH 7.0.
Setting [7] is: bistrispropane buffer, pH 7, pH 7.0, read-out: Solubility pH 7.0.
Setting [8] is: bistrispropane buffer, pH 7.5, pH 7.5, read-out: Solubility pH 7.5.
Where [9] appears, read: bistrispropane buffer, pH 8, pH 8.0, read-out: Solubility pH 8.0.
The mark [10] stands for this setting: glycylglycine buffer, pH 3, pH 3.0, read-out: Solubility pH 3.0.
Where [11] appears, read: glycylglycine buffer, pH 4, pH 4.0, 18 hours at room temperature, Table 2, read-out: Solubility pH 4.0.
Where [12] appears, read: glycylglycine buffer, pH 4, pH 4.0, read-out: Solubility pH 4.0.
Setting [13] is: glycylglycine buffer, pH 5, pH 5.0, read-out: Solubility pH 5.0.

pEC50: −log10 of the molar value. Values after ≈ are worked out from the molar mass of the structure shown. Where two headings read alike, the source gives them in different places. Starred links: 1 amine or outer side, 2 acyl side, 3 side chain; linkers in the order of their positions; H or OH if unused. Positions of bridges follow the written chain, without caps; N, C: chain ends. Residues, ends and D or L forms follow the SMILES beside them. *: point of attachment. C20 diacid = O=C(O)CCCCCCCCCCCCCCCCCCC(=O)*; γGlu = O=C(O)[C@H](CCC(=O)[*:2])N[*:1]

A word on the pEC50: it is the EC50 on a negative log10 scale, so that one unit is a factor of ten. The solubility is the concentration that dissolves in the medium under given conditions. Turning to `CC[C@H](C)[C@H](NC(=O)[C@@H]1CCCN1C(=O)CNC(=O)[C@H](Cc1ccccc1)NC(=O)[C@H](CCC(N)=O)NC(=O)[C@H](CCC(N)=O)NC(=O)[C@H](CO)NC(=O)[C@H](CO)NC(=O)[C@H](CCCNC(=N)N)NC(=O)[C@H](Cc1c[nH]cn1)NC(=O)[C@H](CC(C)C)NC(=O)[C@H](Cc1ccccc1)NC(=O)[C@H](CCC(=O)O)NC(=O)[C@H](C)NC(=O)[C@H](CC(C)C)NC(=O)[C@H](CCCNC(=N)N)NC(=O)[C@H](CCC(N)=O)NC(=O)[C@@H](NC(=O)[C@H](C)NC(=O)[C@@H]1CSSC[C@H](NC(=O)CC[C@H](NC(=O)CCCCCCCCCCCCCCCCCCC(=O)O)C(=O)O)C(=O)NCC(=O)N[C@@H]([C@@H](C)O)C(=O)N[C@@H](C)C(=O)N[C@@H]([C@@H](C)O)C(=O)N1)[C@@H](C)O)C(=O)N[C@@H](CC(C)C)C(=O)N1CCC[C@H]1C(=O)N1CCC[C@H]1C(=O)N[C@H](C(=O)N[C@@H](CCC(=O)O)C(=O)N[C@H](C(=O)NCC(=O)N[C@@H](CO)C(=O)NCC(=O)N[C@H](C(=O)N[C@@H](Cc1ccc(O)cc1)C(N)=O)[C@@H](C)O)C(C)C)[C@@H](C)O` [Example 4, N-alpha-[(S)-4-Carboxy-4-(19-carboxynonadecanoylamino)butyryl]-[des1,Gly3,Glu14,His17,Arg18,Gln21,Gln22,Glu31,Gly35]-pramlintide] ({C20 diacid-γGlu}-CGTATCATQRLAEFLHRSSQQFGPILPPTEVGSGTY-NH2; disulfide 1-6 (inferred)), the pEC50 in data set [1] was 9.55; in data set [2], 9.60. The solubility at 18 h in data set [3] (setting [4]) is 42 µM (≈ 180 µg/mL); in data set [3] (setting [5]), 82 µM (≈ 351 µg/mL); in data set [3] (setting [6]), 146 µM (≈ 624 µg/mL); in data set [3] (setting [7]), 146 µM (≈ 624 µg/mL); in data set [3] (setting [8]), 183 µM (≈ 782 µg/mL); in data set [3] (setting [9]), 190 µM (≈ 812 µg/mL). Moreover, the solubility at 18 h in data set [3] (setting [10]) is more than 200 µM; in data set [3] (setting [11]), 120 µM (≈ 513 µg/mL); in data set [3] (setting [12]), 120 µM (≈ 513 µg/mL).

Turning to `CC[C@H](C)[C@H](NC(=O)[C@@H]1CCCN1C(=O)CNC(=O)[C@H](Cc1ccccc1)NC(=O)[C@H](CC(N)=O)NC(=O)[C@H](CCC(N)=O)NC(=O)[C@H](CO)NC(=O)[C@H](CO)NC(=O)[C@H](Cc1c[nH]cn1)NC(=O)[C@H](CCCNC(=N)N)NC(=O)[C@H](CC(C)C)NC(=O)[C@H](Cc1ccccc1)NC(=O)[C@H](CCC(=O)O)NC(=O)[C@H](C)NC(=O)[C@H](CC(C)C)NC(=O)[C@H](CCCNC(=N)N)NC(=O)[C@H](CCC(N)=O)NC(=O)[C@@H](NC(=O)[C@H](C)NC(=O)[C@@H]1CSSC[C@H](NC(=O)[C@H](CCCNC(=N)N)NC(=O)[C@H](CCC(=O)O)NC(=O)[C@H](CCC(=O)O)NC(=O)CC[C@H](NC(=O)CCCCCCCCCCCCCCCCCCC(=O)O)C(=O)O)C(=O)N[C@@H](CC(N)=O)C(=O)N[C@@H]([C@@H](C)O)C(=O)N[C@@H](C)C(=O)N[C@@H]([C@@H](C)O)C(=O)N1)[C@@H](C)O)C(=O)N[C@@H](CC(C)C)C(=O)N1CCC[C@H]1C(=O)N1CCC[C@H]1C(=O)N[C@H](C(=O)N[C@@H](CC(N)=O)C(=O)N[C@H](C(=O)NCC(=O)N[C@@H](CO)C(=O)N[C@@H](CCC(N)=O)C(=O)N[C@H](C(=O)N1CCC[C@H]1C(N)=O)[C@@H](C)O)C(C)C)[C@@H](C)O` [Example 158, N-alpha-[(S)-4-Carboxy-4-(19-carboxynonadecanoylamino)butyryl]-Glu-Glu-[Arg1,Glu14,Arg17,Gln21,Gln35,Pro37]-pramlintide] ({C20 diacid-γGlu}-EERCNTATCATQRLAEFLRHSSQNFGPILPPTNVGSQTP-NH2; disulfide 4-9 (inferred)), the negative logarithm of the EC50 (pEC50) in data set [1] was 8.93; in data set [2] it was 8.95. The solubility at 18 h in data set [3] (setting [4]), in data set [3] (setting [5]), in data set [3] (setting [6]), in data set [3] (setting [7]), in data set [3] (setting [8]) and in data set [3] (setting [9]) was more than 200 µM each time. The solubility at 18 h in data set [3] (setting [10]), in data set [3] (setting [11]), in data set [3] (setting [12]) and in data set [3] (setting [13]) was more than 200 µM in each case.

In the case of `CC[C@H](C)[C@H](NC(=O)[C@@H]1CCCN1C(=O)CNC(=O)[C@H](Cc1ccccc1)NC(=O)[C@H](CC(N)=O)NC(=O)[C@H](CC(N)=O)NC(=O)[C@H](CO)NC(=O)[C@H](CO)NC(=O)[C@H](Cc1cnc[nH]1)NC(=O)[C@H](Cc1cnc[nH]1)NC(=O)[C@H](CC(C)C)NC(=O)[C@H](Cc1ccccc1)NC(=O)[C@H](CCC(=O)O)NC(=O)[C@H](C)NC(=O)[C@H](CC(C)C)NC(=O)[C@H](CCCNC(=N)N)NC(=O)[C@H](CCC(N)=O)NC(=O)[C@@H](NC(=O)[C@H](C)NC(=O)[C@@H]1CSSC[C@H](NC(=O)CC[C@H](NC(=O)CCCCCCCCCCCCCCCCCCC(=O)O)C(=O)O)C(=O)N[C@@H](CC(N)=O)C(=O)N[C@@H]([C@@H](C)O)C(=O)N[C@@H](C)C(=O)N[C@@H]([C@@H](C)O)C(=O)N1)[C@@H](C)O)C(=O)N[C@@H](CC(C)C)C(=O)N1CCC[C@H]1C(=O)N1CCC[C@H]1C(=O)N[C@H](C(=O)N[C@@H](CC(N)=O)C(=O)N[C@H](C(=O)NCC(=O)N[C@@H](CO)C(=O)N[C@@H](CC(N)=O)C(=O)N[C@H](C(=O)N[C@@H](Cc1ccc(O)cc1)C(N)=O)[C@@H](C)O)C(C)C)[C@@H](C)O` [Example 28, N-alpha-[(S)-4-Carboxy-4-(19-carboxynonadecanoylamino)butyryl]-[des1,Glu14,His17]-pramlintide] ({C20 diacid-γGlu}-CNTATCATQRLAEFLHHSSNNFGPILPPTNVGSNTY-NH2; disulfide 1-6), the pEC50 was 9.59 in data set [1] and 9.75 in data set [2]. Also, the solubility at 18 h in data set [3] (setting [4]), in data set [3] (setting [5]), in data set [3] (setting [6]), in data set [3] (setting [7]), in data set [3] (setting [8]) and in data set [3] (setting [9]) was more than 200 µM each time. For the same molecule, the solubility at 18 h in data set [3] (setting [10]), in data set [3] (setting [11]), in data set [3] (setting [12]) and in data set [3] (setting [13]) was more than 200 µM each time.

Source of the values: patent US8722849B2, “Polypeptides” (Novo Nordisk A/S, priority 2011, dated 2014).
